In brackets after ≈: the same amount, converted by molar mass.
Columns and labels:
[1] = tested on: KB 3-1; test: Cytotoxicity against human KB-3-1 cells by MTT assay; assay type: functional, cell-based
[2] = target: Protein kinase C (PKC); test: Inhibition of Protein kinase C (unknown origin); assay type: protein assay, Homo sapiens
[3] = target: Cyclin-dependent kinase 5/CDK5 activator 1 (Homo sapiens, UniProt Q00535); test: Inhibition of CDK5/p25 (unknown origin); assay type: protein-complex assay
Chain of Cyclin-dependent kinase 5/CDK5 activator 1 (Q00535 whole entry): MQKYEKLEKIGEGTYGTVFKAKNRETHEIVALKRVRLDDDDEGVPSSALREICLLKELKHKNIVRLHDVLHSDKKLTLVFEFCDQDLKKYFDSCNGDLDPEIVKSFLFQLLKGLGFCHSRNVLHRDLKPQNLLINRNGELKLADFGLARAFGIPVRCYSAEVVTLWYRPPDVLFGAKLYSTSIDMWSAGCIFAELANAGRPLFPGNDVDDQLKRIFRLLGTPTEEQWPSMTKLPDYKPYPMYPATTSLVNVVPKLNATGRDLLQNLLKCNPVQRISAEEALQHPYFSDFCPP
Chain of Cyclin-dependent kinase 5/CDK5 activator 1 (Q15078 whole entry, further chain): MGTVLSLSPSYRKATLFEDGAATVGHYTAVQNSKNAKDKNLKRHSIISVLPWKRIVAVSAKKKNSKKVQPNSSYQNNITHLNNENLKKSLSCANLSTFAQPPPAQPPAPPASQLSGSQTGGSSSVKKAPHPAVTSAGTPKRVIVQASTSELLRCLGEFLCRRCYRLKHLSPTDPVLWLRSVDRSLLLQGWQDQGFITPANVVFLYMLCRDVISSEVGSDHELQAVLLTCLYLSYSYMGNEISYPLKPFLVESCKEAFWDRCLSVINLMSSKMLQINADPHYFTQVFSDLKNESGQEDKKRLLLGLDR

[4] = target: Mitogen-activated protein kinase kinase kinase 7 (Homo sapiens) (UniProt O43318); test: Inhibition of MAP3K7 kinase (unknown origin) at 10 uM relative to control
[5] = Selectivity index, ratio of IC50 for CDK1/Cycline B (unknown origin) to IC50 for GSK3beta (unknown origin)
[6] = target: Serine/threonine-protein kinase Chk1 (Homo sapiens, UniProt O14757); test: Inhibition of Chk1 (unknown origin)
[7] = species on record: Homo sapiens; test: Selectivity ratio of IC50 for Chk1 (unknown origin) to IC50 for (unknown origin)
[8] = tested on: MCF7; test: Cytotoxicity against human MCF7 cells by MTT assay; assay type: functional, cell-based
[9] = tested on: MDA-MB-231; test: Cytotoxicity against human MDA-MB-231 cells by MTT assay; assay type: functional, cell-based
[10] = target: Cyclin-dependent kinase 1/cyclin B (Homo sapiens, UniProt P06493); test: Inhibition of CDK1/Cyclin B (unknown origin) in presence of gamma32P-ATP by scintillation counter analysis; assay type: protein-complex assay
[11] = tested on: THP-1; test: Antiinflammatory activity in human THP-1 cells assessed as inhibition of LPS-stimulated IL2 production; assay type: functional, cell-based
[12] = tested on: THP-1; test: Antiinflammatory activity in human THP-1 cells assessed as inhibition of LPS-stimulated TNFalpha production; assay type: functional, cell-based
[13] = tested on: MOLM-13; test: Antiproliferative activity against human MOLM-13 cells assessed as inhibition of proliferation measured after 96 hrs by alamerBlue assay; assay type: functional, cell-based
[14] = tested on: LAPC4; test: Antiproliferative activity against human LAPC4 cells assessed as inhibition of proliferation measured after 96 hrs by alamerBlue assay; assay type: functional, cell-based
[15] = target: Integrin alpha-V/beta-3 (Homo sapiens, UniProt P05106+P06756); test: Antagonist activity against human integrin alphaVbeta3 expressed in CHO-K1 cells measured after 4 hrs by Cell adhesion assay; assay type: cell-based
[16] = target: CDK1/Cyclin E (Homo sapiens, UniProt P06493); test: Inhibition of CDK1/Cyclin E (unknown origin); assay type: protein-complex assay
Chain of CDK1/Cyclin E (P06493 whole entry): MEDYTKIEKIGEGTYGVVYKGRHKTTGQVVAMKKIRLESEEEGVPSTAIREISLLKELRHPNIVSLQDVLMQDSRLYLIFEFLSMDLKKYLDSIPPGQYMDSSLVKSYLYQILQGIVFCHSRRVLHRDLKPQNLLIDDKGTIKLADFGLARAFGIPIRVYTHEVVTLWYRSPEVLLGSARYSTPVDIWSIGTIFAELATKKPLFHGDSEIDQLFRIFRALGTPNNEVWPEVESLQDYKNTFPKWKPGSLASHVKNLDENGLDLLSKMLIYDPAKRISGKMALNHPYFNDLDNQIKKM
Chain of CDK1/Cyclin E (P24864 whole entry, further chain): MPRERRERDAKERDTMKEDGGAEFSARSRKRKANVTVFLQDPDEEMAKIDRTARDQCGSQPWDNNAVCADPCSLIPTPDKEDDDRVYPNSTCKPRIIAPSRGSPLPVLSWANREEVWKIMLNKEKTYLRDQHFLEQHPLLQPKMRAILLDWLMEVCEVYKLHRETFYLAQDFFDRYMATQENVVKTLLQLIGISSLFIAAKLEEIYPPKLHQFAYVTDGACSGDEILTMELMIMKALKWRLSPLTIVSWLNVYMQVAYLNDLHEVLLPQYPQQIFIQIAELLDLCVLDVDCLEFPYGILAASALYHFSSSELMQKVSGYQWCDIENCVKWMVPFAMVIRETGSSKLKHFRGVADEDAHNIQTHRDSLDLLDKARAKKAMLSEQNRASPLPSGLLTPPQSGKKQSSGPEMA

[17] = target: CDK3/Cyclin E (Homo sapiens, UniProt Q00526); test: Inhibition of CDK3/Cyclin E (unknown origin); assay type: protein-complex assay
[18] = target: Mitogen-activated protein kinase 3 (Homo sapiens, UniProt P27361); test: Inhibition of Erk1 (unknown origin)
[19] = Inhibition of MAPKK (unknown origin); set-up: species or system Homo sapiens
[20] = target: Casein kinase I; test: Inhibition of CK1 (unknown origin); assay type: protein assay, Homo sapiens
[21] = target: Casein kinase 2 (Homo sapiens, UniProt P67870+P68400+P19784+Q8NEV1); test: Inhibition of CK2 (unknown origin); assay type: protein assay
[22] = target: Cyclin-dependent kinase 4/cyclin D1 (Homo sapiens, UniProt P11802); test: Inhibition of CDK4/Cyclin D1 (unknown origin); assay type: protein-complex assay
Chain of Cyclin-dependent kinase 4/cyclin D1 (P11802 whole entry): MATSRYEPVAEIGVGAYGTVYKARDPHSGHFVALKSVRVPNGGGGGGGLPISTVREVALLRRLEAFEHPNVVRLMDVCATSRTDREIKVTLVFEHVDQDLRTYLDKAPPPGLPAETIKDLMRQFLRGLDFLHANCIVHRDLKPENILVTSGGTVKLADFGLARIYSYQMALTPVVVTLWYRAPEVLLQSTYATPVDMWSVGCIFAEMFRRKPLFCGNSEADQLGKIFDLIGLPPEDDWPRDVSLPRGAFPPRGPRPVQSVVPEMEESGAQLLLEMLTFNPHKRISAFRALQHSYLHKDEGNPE
Chain of Cyclin-dependent kinase 4/cyclin D1 (P24385 whole entry, further chain): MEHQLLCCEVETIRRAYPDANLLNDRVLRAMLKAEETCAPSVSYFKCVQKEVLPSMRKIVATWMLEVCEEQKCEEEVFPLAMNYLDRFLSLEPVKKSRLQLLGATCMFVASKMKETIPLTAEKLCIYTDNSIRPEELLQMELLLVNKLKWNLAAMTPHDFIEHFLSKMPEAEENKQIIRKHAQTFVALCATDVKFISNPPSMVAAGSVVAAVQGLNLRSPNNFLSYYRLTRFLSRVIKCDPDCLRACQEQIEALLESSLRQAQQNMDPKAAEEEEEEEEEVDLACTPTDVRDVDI

[23] = target: CDK6/cyclin D2 (Homo sapiens, UniProt P30279+Q00534); test: Inhibition of CDK6/Cyclin D2 (unknown origin); assay type: protein-complex assay
[24] = Inhibition of cAMP-dependent protein kinase (unknown origin); set-up: species or system Homo sapiens
[25] = Inhibition of cGMP-dependent protein kinase (unknown origin); set-up: species or system Homo sapiens
[26] = target: Proto-oncogene tyrosine-protein kinase Src (Homo sapiens, UniProt P12931); test: Inhibition of c-Src (unknown origin)
Chain of Proto-oncogene tyrosine-protein kinase Src (P12931 2-536 limits assumed): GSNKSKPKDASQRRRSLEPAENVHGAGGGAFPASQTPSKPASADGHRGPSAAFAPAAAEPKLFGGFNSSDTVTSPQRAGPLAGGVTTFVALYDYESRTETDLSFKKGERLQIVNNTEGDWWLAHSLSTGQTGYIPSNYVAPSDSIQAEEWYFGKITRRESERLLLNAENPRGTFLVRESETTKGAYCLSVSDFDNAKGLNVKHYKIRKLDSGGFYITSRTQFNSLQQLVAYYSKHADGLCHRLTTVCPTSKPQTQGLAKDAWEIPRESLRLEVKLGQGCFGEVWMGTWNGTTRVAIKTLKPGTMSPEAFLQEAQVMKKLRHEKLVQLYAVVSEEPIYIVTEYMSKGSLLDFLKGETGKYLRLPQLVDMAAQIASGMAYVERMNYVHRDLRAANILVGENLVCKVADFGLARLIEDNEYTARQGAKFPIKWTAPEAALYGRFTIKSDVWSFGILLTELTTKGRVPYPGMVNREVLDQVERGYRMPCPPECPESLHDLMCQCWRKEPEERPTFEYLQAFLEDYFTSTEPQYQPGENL

[27] = target: Tyrosine-protein kinase ABL1 (Homo sapiens, UniProt P00519); test: Inhibition of c-abl (unknown origin)
[28] = target: DNA topoisomerase 1 (Homo sapiens, UniProt P11387); test: Inhibition of topoisomerase 1 (unknown origin)
[29] = target: DNA topoisomerase 2-alpha (Homo sapiens, UniProt P11388); test: Inhibition of topoisomerase 2 alpha (unknown origin)
[30] = tested on: L5178Y; test: Cytotoxicity against mouse L5178Y cells by MTT assay; assay type: functional, cell-based
[31] = Inhibition of IL-1 stimulated PGE2 production in human rheumatoid synovial fibroblasts; assay type: functional, cell-based; details: Fibroblast
[32] = species on record: Bos taurus; test: Inhibition of Interleukin-1- stimulated proteoglycan degradation in bovine articular cartilage; assay type: functional; details: Cartilage tissue
[33] = species on record: Bos taurus; test: Inhibition of Interleukin-1- stimulated iNOS gene expression in bovine articular cartilage; assay type: functional; details: Cartilage tissue
[34] = tested on: Human immunodeficiency virus 1; test: Antiviral activity against HIV1 assessed as inhibition of LC5-RIC cells infection at 3.1 uM relative to control; assay type: functional
[35] = target: Human immunodeficiency virus type 1 reverse transcriptase (Human immunodeficiency virus 1) (UniProt Q72547); test: Inhibition of HIV1 Reverse transcriptase at 25 uM relative to control
[36] = species on record: Mus musculus; test: Neuroprotective activity in Swiss mouse cortical neurons assessed as increase in cell viability in presence of H2O2 at 10 nM relative to control; assay type: functional
[37] = target: Cyclin-dependent kinase 2/cyclin A (Homo sapiens, UniProt P24941); test: Inhibition of CDK2/Cyclin A (unknown origin); assay type: protein-complex assay
[38] = target: CDK9/Cyclin T (Homo sapiens, UniProt P50750); test: Inhibition of CDK9/Cyclin T (unknown origin); assay type: protein-complex assay
Chain of CDK9/Cyclin T (O60563 whole entry): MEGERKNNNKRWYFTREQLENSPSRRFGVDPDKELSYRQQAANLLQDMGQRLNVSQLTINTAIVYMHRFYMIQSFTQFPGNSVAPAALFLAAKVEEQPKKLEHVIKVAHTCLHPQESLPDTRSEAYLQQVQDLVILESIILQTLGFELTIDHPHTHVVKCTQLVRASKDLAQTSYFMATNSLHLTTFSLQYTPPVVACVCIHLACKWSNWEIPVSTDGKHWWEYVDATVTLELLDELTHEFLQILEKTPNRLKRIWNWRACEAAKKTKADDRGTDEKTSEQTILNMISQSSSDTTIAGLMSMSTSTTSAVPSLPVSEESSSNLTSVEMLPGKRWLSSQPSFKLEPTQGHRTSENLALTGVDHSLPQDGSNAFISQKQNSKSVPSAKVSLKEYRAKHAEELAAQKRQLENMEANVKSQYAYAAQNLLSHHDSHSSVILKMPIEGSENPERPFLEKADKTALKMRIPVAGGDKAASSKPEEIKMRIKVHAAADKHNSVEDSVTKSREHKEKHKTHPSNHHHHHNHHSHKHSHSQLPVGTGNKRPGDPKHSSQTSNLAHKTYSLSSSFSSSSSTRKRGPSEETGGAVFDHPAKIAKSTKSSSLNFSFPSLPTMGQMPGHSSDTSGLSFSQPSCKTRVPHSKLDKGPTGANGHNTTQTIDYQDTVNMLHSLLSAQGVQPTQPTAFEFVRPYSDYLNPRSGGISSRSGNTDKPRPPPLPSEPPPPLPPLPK
Chain of CDK9/Cyclin T (P50750 whole entry): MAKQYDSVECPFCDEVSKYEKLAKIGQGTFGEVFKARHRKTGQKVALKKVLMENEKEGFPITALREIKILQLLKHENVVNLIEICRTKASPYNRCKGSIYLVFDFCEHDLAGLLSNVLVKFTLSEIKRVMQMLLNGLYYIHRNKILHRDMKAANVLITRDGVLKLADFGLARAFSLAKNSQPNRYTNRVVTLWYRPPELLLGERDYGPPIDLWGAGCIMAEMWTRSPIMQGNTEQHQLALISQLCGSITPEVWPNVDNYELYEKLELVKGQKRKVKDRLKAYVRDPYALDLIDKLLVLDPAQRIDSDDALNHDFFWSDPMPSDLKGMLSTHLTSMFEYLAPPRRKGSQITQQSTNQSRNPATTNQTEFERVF
Chain of CDK9/Cyclin T (O60583 whole entry, further chain): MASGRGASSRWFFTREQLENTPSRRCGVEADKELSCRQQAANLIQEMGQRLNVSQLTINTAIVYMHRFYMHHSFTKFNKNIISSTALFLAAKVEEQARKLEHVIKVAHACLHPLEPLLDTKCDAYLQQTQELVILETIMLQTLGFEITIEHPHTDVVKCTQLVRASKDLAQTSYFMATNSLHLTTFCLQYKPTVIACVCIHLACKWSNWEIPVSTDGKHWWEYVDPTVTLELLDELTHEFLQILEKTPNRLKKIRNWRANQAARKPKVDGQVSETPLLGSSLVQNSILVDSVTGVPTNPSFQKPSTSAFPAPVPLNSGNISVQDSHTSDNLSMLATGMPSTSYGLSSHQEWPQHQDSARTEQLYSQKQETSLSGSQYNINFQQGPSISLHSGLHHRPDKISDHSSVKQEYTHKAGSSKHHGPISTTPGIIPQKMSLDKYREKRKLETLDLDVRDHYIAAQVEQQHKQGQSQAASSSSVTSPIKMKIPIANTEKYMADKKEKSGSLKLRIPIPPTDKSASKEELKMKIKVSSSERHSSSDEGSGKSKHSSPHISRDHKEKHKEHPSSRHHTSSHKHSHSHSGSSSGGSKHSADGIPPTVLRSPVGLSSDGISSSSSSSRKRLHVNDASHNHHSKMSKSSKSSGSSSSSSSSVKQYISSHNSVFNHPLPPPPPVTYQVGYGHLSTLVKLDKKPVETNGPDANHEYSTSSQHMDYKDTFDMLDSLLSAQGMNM

[39] = target: Dual specificity tyrosine-phosphorylation-regulated kinase 1A (Homo sapiens, UniProt Q13627)
Description: Inhibition of DYRK1A (unknown origin)

[40] = target: Glycogen synthase kinase-3 beta (Rattus norvegicus, UniProt P18266); test: Inhibition of recombinant recombinant rat GSK3beta using GS-1 peptide as substrate in presence of [gamma-32P]ATP measured after 30 mins incubation by scintillation counting analysis
[41] = tested on: 786-0; test: Antitumor activity against human 786-0 cells; assay type: functional
[42] = target: RAF proto-oncogene serine/threonine-protein kinase (Homo sapiens, UniProt P04049); test: Inhibition of c-Raf (unknown origin)
Chain of RAF proto-oncogene serine/threonine-protein kinase (P04049 whole entry): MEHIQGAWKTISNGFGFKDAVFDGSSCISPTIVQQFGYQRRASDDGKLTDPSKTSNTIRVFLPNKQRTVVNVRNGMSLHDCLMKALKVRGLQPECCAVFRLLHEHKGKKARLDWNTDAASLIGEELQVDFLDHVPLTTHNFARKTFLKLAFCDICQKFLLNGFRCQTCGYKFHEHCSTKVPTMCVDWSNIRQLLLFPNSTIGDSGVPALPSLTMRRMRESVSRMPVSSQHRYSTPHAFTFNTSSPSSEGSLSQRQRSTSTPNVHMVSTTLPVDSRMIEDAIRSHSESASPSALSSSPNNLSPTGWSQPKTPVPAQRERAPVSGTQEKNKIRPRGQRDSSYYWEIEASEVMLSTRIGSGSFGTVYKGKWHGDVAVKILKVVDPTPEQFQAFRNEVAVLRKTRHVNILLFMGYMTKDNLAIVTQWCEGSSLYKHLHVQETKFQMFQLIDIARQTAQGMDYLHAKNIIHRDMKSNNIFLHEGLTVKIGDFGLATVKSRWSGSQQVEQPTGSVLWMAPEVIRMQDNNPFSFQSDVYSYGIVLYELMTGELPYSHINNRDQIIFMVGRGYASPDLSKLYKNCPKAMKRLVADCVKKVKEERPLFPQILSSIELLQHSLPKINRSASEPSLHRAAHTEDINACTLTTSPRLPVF

SMILES: O=C1NCCCc2ccccc2-c2c1[nH]c1ccccc21
- IC50 [1]: 8 µM

SMILES: O=C1NC(=O)/C(=C2\CCNC(=O)c3[nH]ccc32)N1 [SPONGIACIDIN C]
- IC50 [2]: 22 µM

SMILES: O=C1Cc2c([nH]c3ccc(Br)cc23)-c2sccc2N1
- IC50 [3]: 120 nM

SMILES: CCOC(=O)c1[nH]cc2c1-c1[nH]c3ccccc3c1C(=O)NC2
- inhibition [4]: 78%

SMILES: O=C1Cc2c([nH]c3ccc(Br)cc23)-c2cccnc2N1
- IC50 [3]: 6000 nM
- Selectivity Index [5]: 1.4

SMILES: CCCNC1=NC(=O)/C(=C2\CCNC(=O)c3[nH]c(-c4ccccc4)cc32)N1
- IC50 [6]: > 1000 nM
- Ratio IC50 [7]: > 64

SMILES: O=C1NCc2ccccc2-c2c1[nH]c1ccccc21
- IC50 [8]: 600 nM
- IC50 [9]: 600 nM

SMILES: NC1=NC(=O)/C(=C2\CCNC(=O)c3[nH]c4ccccc4c32)N1
- IC50 [10]: 800 nM
- IC50 [3]: 177 nM
- IC50 [11]: 3500 nM
- IC50 [12]: 8.2 µM
- Ratio IC50 [7]: 29

SMILES: Cc1nnc2n1-c1ccccc1C(c1ccc(Cl)cc1)=C[C@@H]2CC(=O)Nc1ccc2c(c1)NC(=O)C2
- IC50 [13]: 0.17 nmol/mL
- IC50 [14]: 0.08 nmol/mL

SMILES: O=C(O)CC1CCC(=O)N(CC(=O)NC[C@H]2CC[C@H](Nc3nc4ccccc4[nH]3)CC2)c2ccccc21 (stereo not given in full)
- IC50 [15]: 0.04 nM

SMILES: NC1=NC(=O)/C(=C2\CCNC(=O)c3[nH]c(Cl)c(Cl)c32)N1
- IC50 [10]: 220 nM
- IC50 [3]: 62 nM

SMILES: COc1ccc2c3c([nH]c2c1)C(=O)NCc1ccccc1-3
- IC50 [8]: 4000 nM
- IC50 [9]: 4000 nM

SMILES: O=c1[nH]c2ccccc2c2c1[nH]c1ccccc12
- IC50 [1]: 6.5 µM

SMILES: O=C1NCC/C(=N\Nc2ccccn2)c2c1[nH]c(Br)c2Br
- IC50 [3]: 10400 nM

SMILES: NC1=NC(=O)/C(=C2\CCNC(=O)c3[nH]c(Br)cc32)N1 [HYMENIALDISINE]
- IC50 [16]: 40 nM
- IC50 [17]: 100 nM
- IC50 [18]: 470 nM
- IC50 [19]: 1200 nM
- IC50 [20]: 0.035 µM
- IC50 [21]: 7 µM
- IC50 [22]: 600 nM
- IC50 [3]: 25 nM
- IC50 [23]: 700 nM
- IC50 [24]: 8 µM
- IC50 [25]: 1700 nM
- IC50 [26]: 7 µM
- IC50 [27]: 4 µM
- IC50 [28]: 10 µM
- IC50 [29]: 10 µM
- EC50 [30]: 3.5 µg/mL (≈ 10.8 µM)
- IC50 [1]: 3.1 µM
- IC50 [31]: 600 nM
- IC50 [32]: 600 nM
- IC50 [33]: 800 nM
- IC50 [11]: 2400 nM
- IC50 [12]: 1.4 µM
- inhibition at 3.1 µM [34]: 30%
- inhibition [35]: 90%
- Activity [36]: 120%

SMILES: CNC1=NC(=O)/C(=C2\CCNC(=O)c3[nH]c(-c4ccccc4)cc32)N1
- Ratio IC50 [7]: 38

SMILES: O=C1Cc2c([nH]c3cc[n+](Cc4ccccc4)cc23)-c2ccccc2N1.[Br-]
- IC50 [37]: 6.2 µM
- IC50 [20]: > 10 µM
- IC50 [3]: 7300 nM
- IC50 [38]: 240 nM
- IC50 [39]: > 10 µM

SMILES: NC1=NC(=O)/C(=C2\CCNC(=O)c3[nH]c4ccc(Cl)cc4c32)N1
- IC50 [10]: 2300 nM
- IC50 [3]: 191 nM

SMILES: NC1=NC(=O)/C(=C2\CCNC(=O)c3[nH]cc(Br)c32)N1
- IC50 [10]: 1500 nM
- IC50 [3]: 79 nM

SMILES: NCCCCOc1ccc2c(c1)-c1[nH]c3ccc(Br)cc3c1CC(=O)N2
- IC50 [40]: 40 nM

SMILES: N#Cc1ccc2[nH]c3c(c2c1)CC(=O)Nc1cccnc1-3 [CAZPAULLONE]
- IC50 [10]: 500 nM
- IC50 [37]: 0.5 µM

SMILES: NC1=NC(=O)/C(=C2\CCNC(=O)c3[nH]c(Br)c(Br)c32)N1
- IC50 [10]: 530 nM
- IC50 [3]: 56 nM

SMILES: O=C1Cc2c(-c3ccco3)cc(-c3ccccc3)nc2-c2ccccc2N1
- GI50 [41]: 5.5 µM

SMILES: O=C1Cc2c([nH]c3ccc([N+](=O)[O-])cc23)-c2ccccc2N1 [ALSTERPAULLONE]
- IC50 [19]: > 100000 nM
- IC50 [22]: > 10000 nM
- IC50 [42]: > 10 µM
- IC50 [24]: 7 µM
- IC50 [25]: > 100000 nM

Source: ChEMBL document CHEMBL5226304, “Fused-azepinones: Emerging scaffolds of medicinal importance” (Eur J Med Chem, 2021)
